ChEMBL document CHEMBL3045179, “Mode of Action and QSAR Studies of Nitrification Inhibitors” (J Pestic Sci, 1997)

Legend:
[1] = tested on: Nitrosomonas europaea; experiment: Inhibition of Nitrosomonas europaea ATCC 25978-mediated nitrification activity assessed as nitrite nitrogen formation at 1 mg/kg after 7 to 10 days by Griess-Ilosvay method relative to control; type: functional; conditions: values are per cent of control
[2] = tested on: Nitrosomonas europaea; experiment: Inhibition of Nitrosomonas europaea ATCC 25978-mediated nitrification activity assessed as nitrite nitrogen formation after 7 to 10 days by Griess-Ilosvay method; type: functional, organism-based; conditions: read-out: pI50 (converted)
[3] = Octanol-water partition coefficient, log P of the compound; type: physicochemical
[4] = tested on: Nitrosomonas sp. TK794; experiment: Inhibition of Nitrosomonas sp. TK794-mediated nitrification activity assessed as nitrite nitrogen formation at 1 mg/kg after 7 to 10 days by Griess-Ilosvay method relative to control; type: functional
[5] = tested on: Nitrosomonas sp. TK794; experiment: Inhibition of Nitrosomonas sp. TK794-mediated nitrification activity assessed as nitrite nitrogen formation at 5 mg/kg after 7 to 10 days by Griess-Ilosvay method relative to control; type: functional
[6] = tested on: Nitrosomonas sp. TK794; experiment: Inhibition of Nitrosomonas sp. TK794-mediated nitrification activity assessed as nitrite nitrogen formation at 4 mg/kg after 7 to 10 days by Griess-Ilosvay method relative to control; type: functional
[7] = tested on: Nitrosomonas europaea; experiment: Inhibition of Nitrosomonas europaea ATCC 25978-mediated nitrification activity assessed as nitrite nitrogen formation at 2 mg/kg after 7 to 10 days by Griess-Ilosvay method relative to control; type: functional
[8] = tested on: Nitrosomonas sp. TK794; experiment: Inhibition of Nitrosomonas sp. TK794-mediated nitrification activity assessed as nitrite nitrogen formation at 0.1 mg/kg after 7 to 10 days by Griess-Ilosvay method relative to control; type: functional
[9] = tested on: Nitrosomonas europaea; experiment: Inhibition of Nitrosomonas europaea ATCC 25978-mediated nitrification activity assessed as nitrite nitrogen formation at 0.1 mg/kg after 7 to 10 days by Griess-Ilosvay method relative to control; type: functional; conditions: values are per cent of control
[10] = tested on: Nitrosomonas sp. TK794; experiment: Inhibition of Nitrosomonas sp. TK794-mediated nitrification activity assessed as nitrite nitrogen formation at 200 mg/kg after 7 to 10 days by Griess-Ilosvay method relative to control; type: functional
[11] = tested on: Nitrosomonas europaea; experiment: Inhibition of Nitrosomonas europaea ATCC 25978-mediated nitrification activity assessed as nitrite nitrogen formation at 10 mg/kg after 7 to 10 days by Griess-Ilosvay method relative to control; type: functional
[12] = tested on: Nitrosomonas europaea; experiment: Inhibition of Nitrosomonas europaea ATCC 25978-mediated nitrification activity assessed as nitrite nitrogen formation at 5 mg/kg after 7 to 10 days by Griess-Ilosvay method relative to control; type: functional
[13] = tested on: Nitrosomonas europaea; experiment: Inhibition of Nitrosomonas europaea ATCC 25978-mediated nitrification activity assessed as nitrite nitrogen formation at 200 mg/kg after 7 to 10 days by Griess-Ilosvay method relative to control; type: functional
[14] = tested on: Nitrosomonas sp. TK794; experiment: Inhibition of Nitrosomonas sp. TK794-mediated nitrification activity assessed as nitrite nitrogen formation at 500 mg/kg after 7 to 10 days by Griess-Ilosvay method relative to control; type: functional
[15] = tested on: Nitrosomonas sp. TK794; experiment: Inhibition of Nitrosomonas sp. TK794-mediated nitrification activity assessed as nitrite nitrogen formation at 0.5 mg/kg after 7 to 10 days by Griess-Ilosvay method relative to control; type: functional
[16] = tested on: Nitrosomonas europaea; experiment: Inhibition of Nitrosomonas europaea ATCC 25978-mediated nitrification activity assessed as nitrite nitrogen formation at 0.5 mg/kg after 7 to 10 days by Griess-Ilosvay method relative to control; type: functional; conditions: values are per cent of control
[17] = tested on: Nitrosomonas sp. TK794; experiment: Inhibition of Nitrosomonas sp. TK794-mediated nitrification activity assessed as nitrite nitrogen formation at 25 mg/kg after 7 to 10 days by Griess-Ilosvay method relative to control; type: functional

Row | Compound | IC50 [2] [nM] | logP ([3]; read-out: logP) | residual activity at 0.1 mg/kg [9] [%] | also measured
1 | Nc1nc(N)nc(C(Cl)(Cl)Cl)n1 | 7080 | 1.21 |  | inhibition in vivo at 4 mg/kg [6]: 40%; inhibition in vivo at 2 mg/kg [7]: 63.2%
2 | Nc1nc(C(Cl)(Cl)Cl)nc(C(Cl)(Cl)Cl)n1 |  | 2.45 |  | inhibition in vivo at 1 mg/kg [4]: 56.2%
3 | CNc1nc(C(Cl)(Cl)Cl)nc(C(Cl)(Cl)Cl)n1 | 589 | 3.14 | 69.6 | 
4 | CCCNc1nc(C(Cl)(Cl)Cl)nc(C(Cl)(Cl)Cl)n1 | 219 | 4.19 | 60 | 
5 | CCCCNc1nc(C(Cl)(Cl)Cl)nc(C(Cl)(Cl)Cl)n1 | 977 | 4.72 | 72.4 | 
6 | CCCCCNc1nc(C(Cl)(Cl)Cl)nc(C(Cl)(Cl)Cl)n1 | 1230 | 5.25 | 67.1 | 
7 | CCCCCCNc1nc(C(Cl)(Cl)Cl)nc(C(Cl)(Cl)Cl)n1 | 1660 | 5.79 |  | residual activity at 1 mg/kg [1]: 42.7%
8 | CCCCCCCCCCNc1nc(C(Cl)(Cl)Cl)nc(C(Cl)(Cl)Cl)n1 | 10500 | 7.9 |  | inhibition in vivo at 10 mg/kg [11]: 36.8%
9 | CCCCCCCCCCCCNc1nc(C(Cl)(Cl)Cl)nc(C(Cl)(Cl)Cl)n1 | 5750 | 8.96 |  | inhibition in vivo at 5 mg/kg [5]: 55.2%; inhibition in vivo at 5 mg/kg [12]: 50%
10 | CCCCCCCCCCCCCCCCNc1nc(C(Cl)(Cl)Cl)nc(C(Cl)(Cl)Cl)n1 |  |  |  | inhibition in vivo at 200 mg/kg [13]: 52.8%; inhibition in vivo at 500 mg/kg [14]: 52.9%; logP [3]: 11.05
11 | CN(C)c1nc(C(Cl)(Cl)Cl)nc(C(Cl)(Cl)Cl)n1 |  | 3.7 |  | inhibition in vivo at 0.5 mg/kg [15]: 60.5%
12 | CSc1nc(C(Cl)(Cl)Cl)nc(C(Cl)(Cl)Cl)n1 | 186 | 4.21 |  | inhibition in vivo at 0.5 mg/kg [15]: 41.3%; residual activity at 0.5 mg/kg [16]: 18.7%
13 | CCCCc1nc(C(Cl)(Cl)Cl)nc(C(Cl)(Cl)Cl)n1 | 617 | 5.65 |  | residual activity at 1 mg/kg [1]: 29.5%; inhibition in vivo at 1 mg/kg [4]: 33.6%
14 | ClC(Cl)(Cl)c1nc(C(Cl)(Cl)Cl)nc(C(Cl)(Cl)Cl)n1 |  | 3.71 |  | inhibition in vivo at 25 mg/kg [17]: 50%
15 | Clc1cccc(C(Cl)(Cl)Cl)n1 [NITRAPYRIN] | 1910 |  |  | residual activity at 1 mg/kg [1]: 30.1%; inhibition in vivo at 5 mg/kg [5]: 22.9%

Continued, in another order:

Row | IC50 [2] [nM] | logP ([3]; read-out: logP) | Compound | residual activity at 0.1 mg/kg [9] [%] | also measured
16 | 1050 | 5.7 | CCOc1nc(-c2ccccc2)nc(C(Cl)(Cl)Cl)n1 |  | residual activity at 1 mg/kg [1]: 31.4%; inhibition in vivo at 1 mg/kg [4]: 51.2%
17 | 3390 | 6.22 | CCCOc1nc(-c2ccccc2)nc(C(Cl)(Cl)Cl)n1 |  | residual activity at 1 mg/kg [1]: 48.5%; inhibition in vivo at 5 mg/kg [5]: 47.9%
18 | 331 | 3.57 | CCNc1nc(OC)nc(C(Cl)(Cl)Cl)n1 | 49.1 | inhibition in vivo at 0.1 mg/kg [8]: 56.8%
19 | 676 | 4.64 | CCOc1nc(SC)nc(C(Cl)(Cl)Cl)n1 | 64.8 | inhibition in vivo at 1 mg/kg [4]: 60%
20 | 257 | 5.17 | CCCOc1nc(SC)nc(C(Cl)(Cl)Cl)n1 | 47.6 | inhibition in vivo at 1 mg/kg [4]: 60%
21 |  | 5.26 | ClC(Cl)(Cl)c1nc(-c2ccccc2)nc(C(Cl)(Cl)Cl)n1 |  | inhibition in vivo at 200 mg/kg [10]: 65.8%
22 | 257 | 3.68 | CCNc1nc(C(Cl)(Cl)Cl)nc(C(Cl)(Cl)Cl)n1 | 52.7 | 
23 |  | 4.33 | ClC(Cl)(Cl)c1nc(Nc2ccccc2)nc(C(Cl)(Cl)Cl)n1 |  | inhibition in vivo at 0.5 mg/kg [15]: 55%
24 | 457 | 3.59 | COc1nc(C(Cl)(Cl)Cl)nc(C(Cl)(Cl)Cl)n1 | 27.4 | inhibition in vivo at 1 mg/kg [4]: 47.8%
25 | 437 | 4.14 | CCOc1nc(C(Cl)(Cl)Cl)nc(C(Cl)(Cl)Cl)n1 |  | residual activity at 1 mg/kg [1]: 27.3%; inhibition in vivo at 1 mg/kg [4]: 25.8%
26 | 1100 | 5.74 | Fc1ccc(Oc2nc(C(Cl)(Cl)Cl)nc(C(Cl)(Cl)Cl)n2)c(Cl)c1 |  | inhibition in vivo at 1 mg/kg [4]: 57.8%; residual activity at 0.5 mg/kg [16]: 52.2%
27 | 708 | 4.07 | Cc1nc(C(Cl)(Cl)Cl)nc(C(Cl)(Cl)Cl)n1 |  | inhibition in vivo at 0.5 mg/kg [15]: 65%; residual activity at 0.5 mg/kg [16]: 47.2%
